US20090239749A1, “Biocidal compositions” (priority 2006, published 2009)
In brackets after ≈: the same amount, converted by molar mass.

Columns and labels:
[1] = cited from earlier work
Candida albicans (CA) = assay: Minimum Inhibitory Concentration (MIC) test in YEME media, 96 well plate; assay type: cell-based
Protocol: These materials produced according to Examples 4-6 were examined for their biocidal efficacy by following a standardised Minimum Inhibitory Concentration (MIC) test. The test consisted of known number of cells of a strain of Candida albicans (CA) in YEME (yeast extract malt extract media), inoculating concentrations of the active material and blanks contained in a 96 well plate. The plates were incubated at 37° C. overnight, and then examined with a UV plate reader at a wavelength of 550 nm.
Equivalent experiments were also conducted to determine the MIC for the biocide active dissolved in a water miscible solvent. In these cases the “blank” reference material was simply a sample of the solvent containing no active compound.
All experiments were repeated 4 times.
All experiments were conducted in YEME media against a CA culture.

| SMILES | solubility in water [1] | MIC (Candida albicans (CA); ketoconazole, initial concentration 0.15 mg/ml active, incubated overnight 37° C.) | MIC (Candida albicans (CA); dissolved in a water/propylene glycol cosolvent mixture) |
| --- | --- | --- | --- |
| N#Cc1c(Cl)c(Cl)c(Cl)c(C#N)c1Cl [Chlorothalonil, 2,4,5,6-tetrachloroisophthalonitrile] | ~0.6 µg/mL (≈ 2.26 µM) | – | – |
| CC(=O)N1CCN(c2ccc(OCC3COC(Cn4ccnc4)(c4ccc(Cl)cc4Cl)O3)cc2)CC1 (stereo not shown) [Ketoconazole, acetyl-dichlorophenyl-imidazole] | – | 65 µg/mL (≈ 122 µM) | – |
| CCCC1COC(Cn2cncn2)(c2ccc(Cl)cc2Cl)O1 (stereo not shown) [Propiconazole, 1-(2-(2,4-dichlorophenyl)-4-propyl-1-1,3-dioxolan-2-ylmethyl)-1H-1,2,4-tri azole] | around 100 mg/L | – | 91.6 µg/mL (≈ 268 µM) |
| Oc1cc(Cl)ccc1Oc1ccc(Cl)cc1Cl [Triclosan, 5-chloro-2-(2,4-dichlorophenoxy)-phenol] | 17 µg/mL (≈ 58.7 µM) | – | – |
| CO/C=C(/C(=O)OC)c1ccccc1Oc1cc(Oc2ccccc2C#N)ncn1 [Azoxystrobin, methyl(E)-2-{2-[6-(2-cyanophenoxy)pyrimidin-4-yloxy]phenyl}-3-methoxyacrylate] | ~6 µg/mL (≈ 14.9 µM) | – | – |
| CC1(C)[C@H](C(=O)O[C@H](C#N)c2cccc(Oc3ccccc3)c2)[C@@H]1/C=C(\Cl)C(F)(F)F (racemic) [λ-cyhalothrin] | 0.005 µg/mL (≈ 0.0111 µM) | – | – |
